Source: patent US20240246911A1, “NOVEL T[…] METHODS OF TREATING MOOD DISORDERS” (GILGAMESH PHARMACEUTICALS INC., priority 2021, published 2024)
Where a name gives a salt, the structure may show the parent alone. Read-outs that look alike come from different tables or passages of the source.

Assays:
[1] = tested on: rat forced swim test (FST); test: Forced swim test in rats; assay type: in vivo; conditions: s.c., 23.5-h pre-treatment time
Experimental: Compound 1 is tested for antidepressant-like activity in the rat forced swim test (FST). The compound induces antidepressant-like effects with a 23.5-h pre-treatment time.
Animals. Male Sprague Dawley rats, aged 9-10 weeks, are used in this experiment. Animals are housed in groups of 2 under controlled temperature (22+3°C.) and relative humidity (30-70%) conditions, with 12-hour light/dark cycles, and with ad libitum food and water. This study is carried out in strict accordance with the requirements of the Committee for the Purpose of Control and Supervision of Experiments on Animals (CPCSEA), India. All efforts are made to minimize suffering.
Drugs and Drug Administration. Test compound, saline vehicle, and the positive control desipramine are administered subcutaneously (s.c.), with doses calculated based on the free base. Normal saline is used as the vehicle (or acidified saline in the case of free bases). All compounds are administered at a volume of 5 mL/kg. Test compound and vehicle are administered 0.5 h after the start of the training swim (Swim 1) and 23.5 h before the test swim (Swim 2). […]
Behavioral scoring is conducted by observers who are blind to the treatment groups. Animals are continuously observed during Swim 2 and the total time spent engaging in the following behaviors is recorded: immobile, swimming, and climbing. […]

5-HT1A receptor = 5-HT1A receptor (Homo sapiens (Human), UniProt P08908); test: FLIPR Ca2+ flux functional assay, agonist activity at 5-HT1A; assay type: cell-based; conditions: for Emax: read-out: 5-HT1A Emax
Experimental: (§1) Functional Assays at 5-HT2A, 5-HT2B, and 5-HT1A Receptors. Agonist activity at 5-HT2A, 5-HT2B, and 5-HTIA receptors was determined using a FLIPR Ca^2− flux assay at WuXi AppTec (Hong Kong) Limited according to their standard protocols. Briefly, stably transfected cells expressing the receptor of interest (HEK293 for 5-HT2A and 5-HT2B; CHO cells for 5-HT1A) were grown and plated in a 384-well plate and incubated at 37° C. and 5% CO2 overnight. A solution of 250 mM probenecid in 1 mL FLIPR assay buffer was prepared fresh. This was combined with a fluorescent dye (Fluo-4 Direct™) to make a final assay concentration of 2.5 mM. Compounds were diluted 1:3.16 for 10 points and 750 nL was added to a 384-well compound plate using ECHO along with 30 μL of assay buffer. The fluorescent dye was then added to the assay plate along with assay buffer to a final volume of 40 μL. The cell plate was incubated for 50 min at 37° C.and 5% CO2 and placed into the FLIPR Tetra along with the compound plate. 10 μL of references and compounds were then transferred from the compound plate into the cell plate and the fluorescent signal was read.

5-HT2A receptor [2] = biological target: T1, 5-HT2A receptor (Homo sapiens (Human), UniProt P28223); test: FLIPR Ca2+ flux functional assay, agonist activity at 5-HT2A; assay type: cell-based
Experimental: as §1

5-HT2A receptor [3] = biological target: T1, 5-HT2A receptor; test: 5-HT2A receptor radioligand binding with [3H]ketanserin; conditions: HEK293 stable cell line, 1 nM [3H]ketanserin, 1 h, 25° C.
rat synaptosomes = test: Synaptosome 5-HT release assay; assay type: biochemical; conditions: for EC50: rat synaptosomes preloaded with [3H]5-HT, 10 mins
Experimental: Synaptosome 5-HT Release Assay. Synaptosome release assays were conducted according to modifications of previously described procedures (Partilla et al. (2016). Interrogating the Activity of Ligands at Monoamine Transporters in Rat Brain Synaptosomes. In Neurotransmitter Transporters (pp. 41-52). Springer.). Briefly, synaptosomes were prepared from rat brains. Male
Sprague-Dawley rats were rendered unconscious with CO2 and their brains were immediately removed. The cerebella were discarded and the whole brains (minus striatum) were placed in ice-cold 0.32 M sucrose (10 mL per brain) and gently homogenized by hand. The homogenate of each brain was centrifuged at 1,000×g at 4° C.for 10 mins and the resulting supernatant was diluted with ice-cold 0.32 M sucrose to a total volume of 10 mL to provide the synaptosome solution. […] The incubations were allowed to reach equilibrium for 2 h at 25° C. For the release reactions, 425 μL of preloaded synaptosomes were added to test tubes containing 75 μL of test drugs diluted in KPB containing 1 mg/mL BSA. After 10 mins, the release reaction was stopped using a cell harvester by rapid vacuum filtration over GF/B filter paper presoaked in wash buffer (10 mM Tris-HCl, pH 7.4, 150 mM NaCl) and the filters were washed with additional wash buffer. Filters were dried for 1 h at 60° C.and retained radioactivity was quantified using a MicroBeta 2 liquid scintillation counter. The amount of retained radioactivity was inversely proportional to the extent of release.

5-HT2B receptor = 5-HT2B receptor (Homo sapiens (Human), UniProt P41595); test: FLIPR Ca2+ flux functional assay, agonist activity at 5-HT2B; assay type: cell-based; conditions: for Emax: HEK293 stably transfected cells, Ca2+ flux
5-HT2B receptor, sequence (P41595 whole entry, looked up): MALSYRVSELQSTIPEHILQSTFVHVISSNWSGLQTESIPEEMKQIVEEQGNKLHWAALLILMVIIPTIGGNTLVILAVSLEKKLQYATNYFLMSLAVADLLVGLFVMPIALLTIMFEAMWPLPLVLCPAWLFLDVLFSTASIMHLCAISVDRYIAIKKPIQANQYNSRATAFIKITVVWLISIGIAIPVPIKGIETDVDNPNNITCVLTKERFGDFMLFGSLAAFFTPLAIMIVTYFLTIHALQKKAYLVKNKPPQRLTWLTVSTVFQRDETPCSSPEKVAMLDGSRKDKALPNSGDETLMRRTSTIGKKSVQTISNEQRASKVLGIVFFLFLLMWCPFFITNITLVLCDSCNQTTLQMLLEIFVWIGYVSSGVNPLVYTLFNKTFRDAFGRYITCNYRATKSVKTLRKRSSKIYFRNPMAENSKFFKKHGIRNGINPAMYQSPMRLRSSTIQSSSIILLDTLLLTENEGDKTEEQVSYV
Experimental: as §1

[4] = HEK293 stably transfected cells, Ca2+ flux

Row | SMILES | immobility time relative to vehicle control [1] | EC50 (5-HT1A receptor) | Emax (5-HT1A receptor) | EC50 (5-HT2A receptor [2]) | agonist activity at the 5-HT2A receptor (in words) (5-HT2A receptor [2]; Ca2+ flux) | agonist type at the 5-HT2A receptor (in words) (5-HT2A receptor [2]; Ca2+ flux) | Emax (5-HT2A receptor [2]; [4]) | Ki (5-HT2A receptor [3]) | 5-HT releaser potency compared to 5-MeO-DMT (in words) (rat synaptosomes; rat synaptosomes) | EC50 (rat synaptosomes) | % Release @ Max Dose (10 μM) (rat synaptosomes; rat synaptosomes) | EC50 (5-HT2B receptor) | Emax (5-HT2B receptor) | EC50 (5-HT2A receptor [2]; HEK293 stably transfected cells, Ca2+ flux, read-out: 5-HT2A EC50)
1 | CN(C)CCc1c[nH]c2ccc(OC(F)(F)F)cc12 [Compound 1, N,N-dimethyl-2-(5-(trifluoromethoxy)-1/-indol-3-yl)ethan-1-amine hydrochloride] | reduces immobility time relative to vehicle control in a dose-dependent manner | 6330 nM | 81.8% | 127 nM | potent agonist activity | partial agonist rather than a full agonist | 78.9% | 890 nM | much more potent releaser of 5-HT | 192 nM | 58.77% | 762 nM | 19.6% | 
2 | COc1ccc2[nH]cc(CCN(C)C)c2c1 [Compound 5-MeO-DMT, 5-methoxy-N,N-dimethyltryptamine, reference compound] |  |  | 100% |  |  |  | 106% |  |  | 3950 nM | 54.63% |  | 17.6% | 
3 | CN(C)CCc1c[nH]c2ccccc12 [DMT, N,N-dimethyltryptamine, reference compound] |  |  | 70.2% |  |  |  | 93.4% | 416 nM |  | 80.8 nM | 80.77% |  | 42.8% | 22.2 nM
